According to article PMC7246848, “Comparative Cerebroprotective Potential of D- and L-Carnosine Following Ischemic Stroke in Mice” (International Journal of Molecular Sciences, 2020):
Read-outs that look alike come from different tables or passages of the source.

Columns and labels:
[1] = Serum pharmacokinetics after single intravenous injection (LC-MS/MS); type: in vivo; settings: mice, 1000 mg/kg IV; for serum levels (molar): converted from μg/mL; for half-life: naive pooled noncompartmental analysis
Protocol: Mice were randomly divided into the treatment groups (n = 4~5 mice/group for each time point) and given a single intravenous injection of saline or L-carnosine (1000 mg/kg) or D-carnosine (1000 mg/kg) through the tail vein. Anesthesia was induced by isoflurane inhalation and maintained during intravenous injection. Blood samples were collected by cardiac puncture at 0, 5, 15, 30, 60, 180 and 360 min postadministration of carnosine. Blood was incubated at room temperature for 30 min to allow clotting to occur, followed by centrifugation at 12,000 g to isolate serum. Remaining blood was removed from the body through perfusion with phosphate-buffered saline, and the brain was carefully isolated. Aliquots of brain tissue (300 mg) and serum (150 μL) were stored at −70 °C and used for analysis.
Carnosine levels in serum or brain were determined using liquid chromatography tandem-mass spectrometry (LC-MS/MS) as previously described with a slight modification. H-Tyr-His-OH (Bachem AG, Köln, Germany) was used as internal standard (IS). The entire procedure for sample and standard preparation was carried out on ice. Serum (150 μL) or homogenized brain tissue (300 mg) were deproteinized using an ultrasonicator (VCX 500, Sonics & Materials Inc., Newtown, CT, USA) with 1 mL of 1 M TCA and 50 μL of 3 M TCA, respectively. After spiking the IS (10 μg for brain and 200 ng for serum), each homogenate was centrifuged at 9000 g for 15 min at 4 °C. The supernatant was used for the assay of carnosine concentrations. Calibration curves were obtained by spiking known concentrations of L- or D-carnosine (Sigma-Aldrich, St. Louis, MO, USA) into homogenates of brain or serum obtained from untreated mice, and samples were processed as described above.
Chromatographic separation and quantitation were performed using an LC-MS/MS system composed of HPLC (Ultimate 3000, Dionex, Rome, Italy) coupled with electrospray ionization (ESI) and triple quadrupole-ion trap mass spectrometry (3200 Qtrap, AB Sciex, Ontario, Canada). Synergi C18-L (Phenomenex 150 × 4.6 mm, 4 μm particle size) column was used with a 0.8 mL/min flow rate of mobile phase. Isocratic elution of 75/25 (5 mM heptafluorobutyric acid/acetonitrile) was used for brain samples and gradient elution (95/5 to 80/20 for 6 min and holding for 4 min) was used for serum samples. The injection volume was 5 μL. For ESI source, ion spray voltage was 4.5 kV and capillary temperature was set at 650 °C which provided optimum ionization of each analyte. A multiple reaction monitoring (MRM) in positive mode was used to detect carnosine (m/z 227 > 110 as quant ion, 156 and 83 as qualifier), histidine (m/z 156 > 110 as quant ion, 83 and 82 as qualifier) and IS (m/z 319 > 110 as quant ion, 156 and 91 as qualifier). Pharmacokinetic parameters were calculated by noncompartmental analysis using a sparse sampling and naïve pooled approach (WinNonLin (Phoenix 64 Build 8.0.0.3176), Certara, Mountain View, CA, USA).

[2] = system: transient focal cerebral ischemia (MCAO); test: Transient focal cerebral ischemia (60 min t-MCAO), infarct volume by TTC staining; type: in vivo, mice; settings: for infarct volume reduction in comparison to saline: 48 h post-t-MCAO; for infarct volume reduction: 1000 mg/kg intravenously 2 h post-t-MCAO, 48 h post-MCAO
Protocol: Mice were anesthetized by inhalation of 5% isoflurane (in 100% Oxygen) and maintained at 1.5% isoflurane throughout the surgical procedure. Body temperature was monitored throughout surgery using a rectal probe and maintained at 37 + 0.5 °C using a heating pad (World Precision Instruments, Hitchin, Hertfordshire, UK). Laser Doppler flowmetry (Moor Instruments, Sussex, UK) was used to monitor cerebral blood flow. Focal cerebral ischemia was induced by middle cerebral artery occlusion (MCAO) by insertion of an intraluminal monofilament. […] A midline incision was made on the ventral side of the neck and the left common carotid artery (CCA) was isolated and ligated. Another ligature was tied on the left external carotid artery (ECA) and a loose knot was tied onto the internal carotid artery (ICA) as well as CCA just below the bifurcation. A very fine incision was made on the lower end of CCA and the monofilament (Doccol Corporation, Sharon, MA, USA) was advanced approximately 9 mm distal to the bifurcation into the ICA until it reached the distal end of middle cerebral artery (MCA). Relative cerebral blood flow was monitored for initial 10 min postfilament insertion to confirm at least 70% reduction of […] values. The animals were kept under anesthesia for the ischemic period of 60 min, after which the filament was withdrawn and reperfusion (confirmed using LD) was allowed to take place. The knots were untied and the animals were allowed to recover at 37 °C for 1 h before they were transferred to their normal cages. In the first set of experiments, 60 min transient MCAO (t-MCAO) was induced in mice weighing 20-25 g. At the onset of reperfusion, saline or different doses of drugs (L- and D-carnosine; 100, 500 or 1000 mg/kg) were delivered intraperitoneally (IP). Postrecovery, the animals were allowed to recover, placed back in their normal environment for 48 h and then euthanized. (IP administration was used as it was technically difficult to do IV injections at reperfusion). In a second set of experiments, drugs and saline were administered intravenously 2 h post-t-MCAO at 1000 mg/kg. Forty-eight hours post-t-MCAO, mice were deeply anaesthetized with 5% isoflurane, brains were removed and coronal slices with a thickness of 1 mm were prepared. Brain slices were immersed in 2% TTC (Sigma Aldrich) solution and incubated at 37 °C for 20 min. The area of infarction was traced and measured using image J analysis software. The infarct area was also corrected for edema: (1-(total ipsilateral hemisphere-infarct region)/total contralateral hemisphere) × 100. Total infarct volume was calculated as the sum of all infarct areas multiplied by each section thickness.

primary mouse neurons [3] = test: Oxidative stress assay: ROS accumulation (DCF fluorescence) after B27 withdrawal; type: cell-based; settings: 24 h B27 withdrawal
Protocol: (§1) Primary cortical neurons were prepared from embryonic day 16 C57bl/6J mouse pups or embryonic day 18 Wistar rat pups. Briefly, cerebral cortices were physically and chemically dissociated with 0.25% trypsin-EDTA (Gibco, Waltham, MA, USA) in dissociation medium (HBSS) at 37 °C for 15 min followed by trituration. The dissociated cells were checked under a microscope for single cells and plated out on poly-L-lysine (Sigma-Aldrich) -coated, 24-well plates (187,500 cells/well) for the excitotoxicity assays, and 96-well plates (47,000 cells/well) for the oxidative stress assays. Neuronal cultures were maintained in B27 neurobasal medium with Glutamax and pen-strep (Gibco) in a 5% CO2 incubator at 37 °C, and cells were used at 11–14 days in vitro for experiments.
Cytosolic oxidative stress was determined using dichlorofluorescein (DCF) fluorescence. Primary neurons were loaded with 20 µM 2′, 7′-dichlorodihydrofluorescein diacetate (H2DCFDA; Invitrogen) for 45 min, washed and oxidative stress was induced by B27-withdrawal for 24 h, in the presence or absence of L- or D-carnosine. The fluorescence of oxidized DCF was read after 24 h at Ex485 nm/Em530 nm using the Pherastar FS platereader.

mouse cortical neurons = test: NMDA excitotoxicity assay, LDH release; type: cell-based; settings: NMDA 30 µM
Protocol: as §1
(§2) Neurons were pretreated with L- or D-carnosine for 24 h prior to NMDA stimulation (30 µM) for 30 min. Post-NMDA stimulation, the cells were washed and incubated back in the original medium in the presence or absence of L- and D-carnosine. Wells were washed and the B27-neurobasal medium was replaced in the presence or absence of L- or D-carnosine. Cytotoxicity was measured after 24 h using the Pierce cytotoxicity lactate dehydrogenase (LDH) assay kit. Cell viability was measured by 3-[4–Dimethylthiazol-2-yl]-2,5-diphenyltetrazolium bromide (MTT) assay, which reflects cell metabolism. After NMDA removal, the cells were evaluated for cell viability after 24 h with the addition of fresh media containing each drug. MTT (Sigma Aldrich; final 5 mg/mL) was added to each well and the cells were incubated for 2 h at 37 °C in the dark. Insoluble formazan was dissolved by the addition of 100 μL of DMSO and the absorbance (570 nm) was measured using a multimode plate reader (EnSpire, PerkinElmer, Waltham, MA, USA).

rat cortical neurons = test: NMDA excitotoxicity assay, LDH release; type: cell-based; settings: NMDA 30 µM
Protocol: as §1, §2

primary mouse neurons [4] = test: NMDA excitotoxicity assay, cell viability by MTT; type: cell-based; settings: 24 h pretreatment, 24 h after NMDA
Protocol: as §1, with “Neuronal cultures were maintained in B27 neurobasal medium with Glutamax and pen-strep (Gibco) in a 5% CO2 incubator at 37 °C, and cells were used at 11–14 days in vitro for experiments.” left out
Neurons were pretreated with L- or D-carnosine for 24 h prior to NMDA stimulation (30 µM) for 30 min. […] Cytotoxicity was measured after 24 h using the Pierce cytotoxicity lactate dehydrogenase (LDH) assay kit. Cell viability was measured by 3-[4–Dimethylthiazol-2-yl]-2,5-diphenyltetrazolium bromide (MTT) assay, which reflects cell metabolism. After NMDA removal, the cells were evaluated for cell viability after 24 h with the addition of fresh media containing each drug. […] Insoluble formazan was dissolved by the addition of 100 μL of DMSO and the absorbance (570 nm) was measured using a multimode plate reader (EnSpire, PerkinElmer, Waltham, MA, USA).

[5] = type: in vivo; settings: mice, doses up to 1000 mg/kg
[6] = set-up: method as in PMID 19301317; settings: cited from earlier work
[7] = set-up: method as in PMID 19301317; settings: cited from earlier work; remark: listed apart in the source
[8] = set-up: method as in PMID 23850642; settings: rats, 15 min after intravenous injection of 2000 mg/kg; cited from earlier work
[9] = 100 mg/kg IP at onset of reperfusion
[10] = 500 mg/kg IP at onset of reperfusion
[11] = 1000 mg/kg IP at onset of reperfusion

Row | Compound | serum levels (molar) ([1]; 5 min after injection) [µM] | infarct volume reduction in comparison to saline [2, 9] [%] | infarct volume reduction in comparison to saline [2, 10] [%] | infarct volume reduction in comparison to saline [2, 11] [%] | infarct volume reduction [2] [%] | attenuation of ROS accumulation (primary mouse neurons [3]; 200 µM) [%] | reduction of cell death (LDH assay) (mouse cortical neurons; 10 µM) | reduction of cell death (LDH assay) (mouse cortical neurons; 100 µM) | reduction of cell death (LDH assay) (mouse cortical neurons; 200 µM) [%] | reduction of cell death (LDH assay) (rat cortical neurons; 200 µM) [%] | protection against decrease of cell viability by NMDA (MTT) (primary mouse neurons [4]) | safety and tolerability [5] | also measured
1 | NCCC(=O)N[C@H](Cc1cnc[nH]1)C(=O)O [D-carnosine] | 25700 | 23.6 | 27.8 | 57.2 | 52.1 | 14.5 | 13.1% | 13.3% | 15 | 22.8 | significant protection | safe and well tolerated | AUC ([1]; serum): 108112 µg·min/mL; CL ([1]; serum): 9.23 mL/min/kg; Vss ([1]; serum): 0.12 L/kg; Cmax (5 min) ([1]; serum, 5 min after injection): 5818 µg/mL; half-life ([1]; serum): 1.25 h; reduction of cell death (LDH assay) (rat cortical neurons; 10 µM): 21.9%; reduction of cell death (LDH assay) (rat cortical neurons; 100 µM): 26.4%; stability in human plasma [6]: stable in human plasma; ability to cross the blood brain barrier [7]: able to cross the blood brain barrier
2 | NCCC(=O)N[C@@H](Cc1cnc[nH]1)C(=O)O [L-carnosine, β-alanyl-L-histidine] | 17700 | 33.4 | 30.94 | 47.4 | 53.8 | 19.3 | did not show neuroprotection | did not show neuroprotection | 12.2 | 18.5 | significant protection | safe and well tolerated | clearance ([1]; mouse, serum): 11.1 mL/min/kg; Cmax ([1]; mouse, serum, 5 min after injection): 4010 µg/mL; half-life ([1]; mouse, serum, read-out: Half-Life): 1.3 h; AUC ([1]; mouse, serum, read-out: AUC (converted)): 89800 µg·min/mL; Vd ([1]; mouse, serum, read-out: Vss): 0.223 L/kg; attenuation of ROS accumulation (primary mouse neurons [3]; 100 µM): 18.6%; serum levels of carnosine [8]: 15~20 mmol/L
